# Laboratory results: patent US20200270309A1, “MALEIMIDE GROUP-MODIFIED ANGIOGENESIS INHIBITOR HM-1 AND USE THEREOF” (NANJING ANJI BIOLOGICAL TECHNOLOGY CO., LTD, priority 2017, published 2020)
# Like-named read-outs stand apart in the source and are kept apart here. Peptide text beside a SMILES is read from it. * marks the point of attachment. MaleimidoPEG4propanoyl = O=C1C=CC(=O)N1CCOCCOCCOCCOCCC(=O)*; X18 = O=C1C=CC(=O)N1CCOCCOCCOCCOCCOCCOCCCCCCCC(=O)*; Hexanoyl(6-maleimido) = O=C1C=CC(=O)N1CCCCCC(=O)*; X7 = O=C1C=CC(=O)N1CCOCCOCCOCCOCCOCCOCCCCCCC(=O)*; Propanoyl(3-maleimido) = O=C1C=CC(=O)N1CCC(=O)*; X40 = O=C1C=CC(=O)N1c1ccc(CCCCCCCCC(=O)*)cc1; X24 = O=C1C=CC(=O)N1CCOCCOCCOCCOCCOCCC(=O)*; X44 = O=C1C=CC(=O)N1c1ccc(CCCCCCCC(=O)*)cc1; X43 = O=C1C=CC(=O)N1c1ccc(CCCCCCC(=O)*)cc1; X69 = O=C1C=CC(=O)N1c1ccc(CCCCC(=O)*)cc1; X17 = O=C1C=CC(=O)N1CCOCCOCCCCCCCC(=O)*; X56 = O=C1C=CC(=O)N1c1ccc(CCC(=O)*)cc1; X76 = O=C1C=CC(=O)N1CCOCCCCCCCC(=O)*; X51 = O=C1C=CC(=O)N1c1ccccc1CC(=O)*; X8 = O=C1C=CC(=O)N1CCOCCOCCCC(=O)*; X12 = O=C1C=CC(=O)N1CCOCCCCC(=O)*; X38 = O=C1C=CC(=O)N1CCOCC(=O)*
# Assay: Half-lives and pharmacokinetic parameters of polypeptides vs HM-1
# Details: in vivo
# [1] = read-out: T1/2β (half-life) (converted)
Structure (SMILES),AUC(0-inf),MRT inf,clearance,half-life (T1/2β (half-life)),AUC(0-inf) (read-out: AUC0-∞),clearance (read-out: CL (converted)),MRT inf (read-out: MRT0-∞),half-life [1],half-life
C[C@H](NC(=O)CNC(=O)[C@H](CCCNC(=N)N)NC(=O)CCc1ccc(N2C(=O)C=CC2=O)cc1)C(=O)N[C@@H](CC(=O)O)C(=O)N[C@@H](CCCNC(=N)N)C(=O)N[C@@H](C)C(=O)NCC(=O)NCC(=O)NCC(=O)NCC(=O)N[C@@H](CCCNC(=N)N)C(=O)NCC(=O)N[C@@H](CC(=O)O)C(=O)O [X38] (X56-RGADRAGGGGRGD-OH),31400 ± 7550 ng·h/mL,56.2 ± 11.2 h,0.532 mL/min/kg,2336 ± 15 min,,,,,
C[C@H](NC(=O)[C@H](CCCNC(=N)N)NC(=O)[C@H](CC(=O)O)NC(=O)[C@H](CCC(=O)O)NC(=O)CNC(=O)[C@H](CCCNC(=N)N)NC(=O)CCCCCN1C(=O)C=CC1=O)C(=O)NCC(=O)NCC(=O)NCC(=O)NCC(=O)N[C@@H](CCCNC(=N)N)C(=O)NCC(=O)N[C@@H](CC(=O)O)C(=O)O [P6] ({Hexanoyl(6-maleimido)}-RGEDRAGGGGRGD-OH; C-terminus assumed),27700 ± 7130 ng·h/mL,49.6 ± 9.97 h,0.602 mL/min/kg,,,,,,2062 ± 15 min
C[C@H](NC(=O)CNC(=O)[C@H](CCCNC(=N)N)NC(=O)CCN1C(=O)C=CC1=O)C(=O)N[C@@H](CC(=O)O)C(=O)N[C@@H](CCCNC(=N)N)C(=O)N[C@@H](C)C(=O)N[C@@H](CCC(=O)O)C(=O)N[C@@H](C)C(=O)N[C@@H](C)C(=O)N[C@@H](C)C(=O)N[C@@H](CCCCN)C(=O)N[C@@H](CCCNC(=N)N)C(=O)NCC(=O)N[C@@H](CC(=O)O)C(=O)O [P11] ({Propanoyl(3-maleimido)}-RGADRAEAAAKRGD-OH),,,,,31600 ± 8230 ng·h/mL,0.528 mL/min/kg,56.5 ± 11.6 h,2350 ± 18.6 min,
C[C@H](NC(=O)CNC(=O)[C@H](CCCNC(=N)N)NC(=O)CCCCCCc1ccc(N2C(=O)C=CC2=O)cc1)C(=O)N[C@@H](CC(=O)O)C(=O)N[C@@H](CCCNC(=N)N)C(=O)N[C@@H](C)C(=O)NCC(=O)NCC(=O)NCC(=O)NCC(=O)N[C@@H](CCCNC(=N)N)C(=O)NCC(=O)N[C@@H](CC(=O)O)C(=O)O [X42] (X43-RGADRAGGGGRGD-OH),27100 ± 8010 ng·h/mL,48.5 ± 10.6 h,0.615 mL/min/kg,2015 ± 14.4 min,,,,,
C[C@H](NC(=O)CNC(=O)[C@H](CCCNC(=N)N)NC(=O)Cc1ccccc1N1C(=O)C=CC1=O)C(=O)N[C@@H](CC(=O)O)C(=O)N[C@@H](CCCNC(=N)N)C(=O)N[C@@H](C)C(=O)NCC(=O)NCC(=O)NCC(=O)NCC(=O)N[C@@H](CCCNC(=N)N)C(=O)NCC(=O)N[C@@H](CC(=O)O)C(=O)O [X13] (X51-RGADRAGGGGRGD-OH),33600 ± 7340 ng·h/mL,60 ± 12.5 h,0.497 mL/min/kg,2495 ± 20.4 min,,,,,
C[C@H](NC(=O)CNC(=O)[C@H](CCCNC(=N)N)NC(=O)CCCCCCCc1ccc(N2C(=O)C=CC2=O)cc1)C(=O)N[C@@H](CC(=O)O)C(=O)N[C@@H](CCCNC(=N)N)C(=O)N[C@@H](C)C(=O)NCC(=O)NCC(=O)NCC(=O)NCC(=O)N[C@@H](CCCNC(=N)N)C(=O)NCC(=O)N[C@@H](CC(=O)O)C(=O)O [X43] (X44-RGADRAGGGGRGD-OH),26700 ± 7420 ng·h/mL,47.8 ± 9.93 h,0.623 mL/min/kg,1988 ± 18.6 min,,,,,
C[C@H](NC(=O)CNC(=O)[C@H](CCCNC(=N)N)NC(=O)CCCCc1ccc(N2C(=O)C=CC2=O)cc1)C(=O)N[C@@H](CC(=O)O)C(=O)N[C@@H](CCCNC(=N)N)C(=O)N[C@@H](C)C(=O)NCC(=O)NCC(=O)NCC(=O)NCC(=O)N[C@@H](CCCNC(=N)N)C(=O)NCC(=O)N[C@@H](CC(=O)O)C(=O)O [X40] (X69-RGADRAGGGGRGD-OH),34000 ± 7830 ng·h/mL,60.9 ± 10.7 h,0.49 mL/min/kg,2534 ± 16.2 min,,,,,
C[C@H](NC(=O)CNC(=O)[C@H](CCCNC(=N)N)NC(=O)CCN1C(=O)C=CC1=O)C(=O)N[C@@H](CC(=O)O)C(=O)N[C@@H](CCCNC(=N)N)C(=O)N[C@@H](C)C(=O)NCC(=O)NCC(=O)NCC(=O)NCC(=O)N[C@@H](CCCNC(=N)N)C(=O)NCC(=O)N[C@@H](CC(=O)O)C(=O)O [X2] ({Propanoyl(3-maleimido)}-RGADRAGGGGRGD-OH),,,,,27800 ± 7510 ng·h/mL,0.6 mL/min/kg,49.8 ± 9.73 h,2071 ± 16.8 min,
C[C@H](NC(=O)CNC(=O)[C@H](CCCNC(=N)N)NC(=O)COCCN1C(=O)C=CC1=O)C(=O)N[C@@H](CC(=O)O)C(=O)N[C@@H](CCCNC(=N)N)C(=O)N[C@@H](C)C(=O)NCC(=O)NCC(=O)NCC(=O)NCC(=O)N[C@@H](CCCNC(=N)N)C(=O)NCC(=O)N[C@@H](CC(=O)O)C(=O)O [X49] (X38-RGADRAGGGGRGD-OH),,,,,28500 ± 7290 ng·h/mL,0.585 mL/min/kg,51 ± 11.1 h,2119 ± 19.2 min,
C[C@H](NC(=O)CNC(=O)[C@H](CCCNC(=N)N)NC(=O)CCCCCCCCc1ccc(N2C(=O)C=CC2=O)cc1)C(=O)N[C@@H](CC(=O)O)C(=O)N[C@@H](CCCNC(=N)N)C(=O)N[C@@H](C)C(=O)NCC(=O)NCC(=O)NCC(=O)NCC(=O)N[C@@H](CCCNC(=N)N)C(=O)NCC(=O)N[C@@H](CC(=O)O)C(=O)O [X44] (X40-RGADRAGGGGRGD-OH),26800 ± 8440 ng·h/mL,48 ± 11.6 h,0.622 mL/min/kg,1996 ± 16.8 min,,,,,

# The next lines start with results.
AUC(0-inf),MRT inf,clearance,half-life (T1/2β (half-life)),AUC(0-inf) (read-out: AUC0-∞),clearance (read-out: CL (converted)),MRT inf (read-out: MRT0-∞),half-life [1],Structure (SMILES),half-life
28300 ± 8140 ng·h/mL,50.7 ± 13.4 h,0.588 mL/min/kg,2108 ± 20.4 min,,,,,C[C@H](NC(=O)CNC(=O)[C@H](CCCNC(=N)N)NC(=O)CCOCCOCCOCCOCCN1C(=O)C=CC1=O)C(=O)N[C@@H](CC(=O)O)C(=O)N[C@@H](CCCNC(=N)N)C(=O)N[C@@H](C)C(=O)NCC(=O)NCC(=O)NCC(=O)NCC(=O)N[C@@H](CCCNC(=N)N)C(=O)NCC(=O)N[C@@H](CC(=O)O)C(=O)O [X71] (MaleimidoPEG4propanoyl-RGADRAGGGGRGD-OH),
24300 ± 8150 ng·h/mL,43.5 ± 12.4 h,0.687 mL/min/kg,1810 ± 21.6 min,,,,,C[C@H](NC(=O)CNC(=O)[C@H](CCCNC(=N)N)NC(=O)CCCCCCCOCCN1C(=O)C=CC1=O)C(=O)N[C@@H](CC(=O)O)C(=O)N[C@@H](CCCNC(=N)N)C(=O)N[C@@H](C)C(=O)NCC(=O)NCC(=O)NCC(=O)NCC(=O)N[C@@H](CCCNC(=N)N)C(=O)NCC(=O)N[C@@H](CC(=O)O)C(=O)O [X55] (X76-RGADRAGGGGRGD-OH),
27600 ± 8160 ng·h/mL,49.3 ± 11.5 h,0.605 mL/min/kg,2051 ± 18.6 min,,,,,C[C@H](NC(=O)CNC(=O)[C@H](CCCNC(=N)N)NC(=O)CCCCCCCOCCOCCOCCOCCOCCOCCN1C(=O)C=CC1=O)C(=O)N[C@@H](CC(=O)O)C(=O)N[C@@H](CCCNC(=N)N)C(=O)N[C@@H](C)C(=O)NCC(=O)NCC(=O)NCC(=O)NCC(=O)N[C@@H](CCCNC(=N)N)C(=O)NCC(=O)N[C@@H](CC(=O)O)C(=O)O [X90] (X18-RGADRAGGGGRGD-OH),
27900 ± 8180 ng·h/mL,50.1 ± 9.67 h,0.597 mL/min/kg,2081 ± 20.4 min,,,,,C[C@H](NC(=O)CNC(=O)[C@H](CCCNC(=N)N)NC(=O)CCCCOCCN1C(=O)C=CC1=O)C(=O)N[C@@H](CC(=O)O)C(=O)N[C@@H](CCCNC(=N)N)C(=O)N[C@@H](C)C(=O)NCC(=O)NCC(=O)NCC(=O)NCC(=O)N[C@@H](CCCNC(=N)N)C(=O)NCC(=O)N[C@@H](CC(=O)O)C(=O)O [X52] (X12-RGADRAGGGGRGD-OH),
26200 ± 7810 ng·h/mL,47.9 ± 13.5 h,0.635 mL/min/kg,1954 ± 16.8 min,,,,,C[C@H](NC(=O)CNC(=O)[C@H](CCCNC(=N)N)NC(=O)CCCOCCOCCN1C(=O)C=CC1=O)C(=O)N[C@@H](CC(=O)O)C(=O)N[C@@H](CCCNC(=N)N)C(=O)N[C@@H](C)C(=O)NCC(=O)NCC(=O)NCC(=O)NCC(=O)N[C@@H](CCCNC(=N)N)C(=O)NCC(=O)N[C@@H](CC(=O)O)C(=O)O [X58] (X8-RGADRAGGGGRGD-OH),
26700 ± 8160 ng·h/mL,47.8 ± 12.3 h,0.625 mL/min/kg,1985 ± 16.8 min,,,,,C[C@H](NC(=O)CNC(=O)[C@H](CCCNC(=N)N)NC(=O)CCCCCCCOCCOCCN1C(=O)C=CC1=O)C(=O)N[C@@H](CC(=O)O)C(=O)N[C@@H](CCCNC(=N)N)C(=O)N[C@@H](C)C(=O)NCC(=O)NCC(=O)NCC(=O)NCC(=O)N[C@@H](CCCNC(=N)N)C(=O)NCC(=O)N[C@@H](CC(=O)O)C(=O)O [X62] (X17-RGADRAGGGGRGD-OH),
33100 ± 7150 ng·h/mL,59.1 ± 11.8 h,0.505 mL/min/kg,2457 ± 16.2 min,,,,,C[C@H](NC(=O)CNC(=O)[C@H](CCCNC(=N)N)NC(=O)CCCCCCOCCOCCOCCOCCOCCOCCN1C(=O)C=CC1=O)C(=O)N[C@@H](CC(=O)O)C(=O)N[C@@H](CCCNC(=N)N)C(=O)N[C@@H](C)C(=O)NCC(=O)NCC(=O)NCC(=O)NCC(=O)N[C@@H](CCCNC(=N)N)C(=O)NCC(=O)N[C@@H](CC(=O)O)C(=O)O [X89] (X7-RGADRAGGGGRGD-OH),
29800 ± 8510 ng·h/mL,53.4 ± 9.94 h,0.558 mL/min/kg,2221 ± 18.6 min,,,,,C[C@H](NC(=O)CNC(=O)[C@H](CCCNC(=N)N)NC(=O)CCOCCOCCOCCOCCOCCN1C(=O)C=CC1=O)C(=O)N[C@@H](CC(=O)O)C(=O)N[C@@H](CCCNC(=N)N)C(=O)N[C@@H](C)C(=O)NCC(=O)NCC(=O)NCC(=O)NCC(=O)N[C@@H](CCCNC(=N)N)C(=O)NCC(=O)N[C@@H](CC(=O)O)C(=O)O [X78] (X24-RGADRAGGGGRGD-OH),
